Biological target: δ opioid receptor (DOR) (Homo sapiens, UniProt P41143)
Assay: competition radioligand binding vs 3H-diprenorphine, DOR-CHO membranes

Sequence of δ opioid receptor (DOR) (P41143 whole entry): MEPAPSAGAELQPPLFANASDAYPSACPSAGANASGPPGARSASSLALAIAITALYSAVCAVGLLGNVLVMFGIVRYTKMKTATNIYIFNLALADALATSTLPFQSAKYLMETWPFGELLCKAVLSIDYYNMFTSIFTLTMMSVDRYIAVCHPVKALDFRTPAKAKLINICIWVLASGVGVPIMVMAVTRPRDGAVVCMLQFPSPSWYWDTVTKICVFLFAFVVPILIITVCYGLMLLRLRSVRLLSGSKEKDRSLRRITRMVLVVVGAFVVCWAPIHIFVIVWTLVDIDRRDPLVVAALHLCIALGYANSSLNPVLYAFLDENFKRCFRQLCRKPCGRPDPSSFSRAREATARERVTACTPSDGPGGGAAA

SMILES: Cc1noc(C)c1CC(=O)NCc1nc(NCCCc2ccccc2)c2ccccc2n1 [IPPQ, 2-(3,5-dimethylisoxazol-4-yl)-N-((4-((3-phenylpropyl)amino)quinazolin-2-yl)methyl)acetamide]
- Ki: > 1000 nM

Source: publication PMC8998802 (Pain, 2019)
